# Values quoted from earlier work as cited in patent publication US20130302415A1, “Pharmaceutical Composition” (CIPLA Limited, priority 2010, published 2013).
# Conditions: class II = low solubility, high permeability
smiles,measurement,value
"O=C1Nc2ccc(Cl)cc2[C@@](C#CC2CC2)(C(F)(F)F)O1 [Efavirenz, (S)-6-chloro-4-cyclopropylethynyl-4-trifluoromethyl-1,4-dihydro-2H-3,1-benzoxazin-2-one]",Biopharmaceutical Classification System class,class II
